Our source for the Kd and IC50 values is ChEMBL document CHEMBL5137057, “Small Carbohydrate Derivatives as Potent Antibiofilm Agents” (J Med Chem, 2022).

Molecules are shown by their SMILES.

Test [1] is described as follows: Binding affinity to C-terminal 6His-tagged Escherichia coli UTI89 FmlH (1 to 160 residues) expressed in Escherichia coli C600 expression system assessed as dissociation constant by biolayer interferometry assay. (In general: BLI is a label-free optical method that tracks binding on a fibre tip over time.)
Test [2] is described as follows: Inhibition of C-terminal 6His-tagged Escherichia coli UTI89 FmlH (1 to 160 residues) expressed in Escherichia coli C600 expression system using tetramethylbenzidine as substrate incubated for 1 hr by […].
Test [3] addresses T1, PA-I galactophilic lectin (Pseudomonas aeruginosa (strain ATCC 15692 / PAO1 / 1C / PRS 101 / LMG12228), UniProt Q05097).
T1 sequence (Q05097 whole entry): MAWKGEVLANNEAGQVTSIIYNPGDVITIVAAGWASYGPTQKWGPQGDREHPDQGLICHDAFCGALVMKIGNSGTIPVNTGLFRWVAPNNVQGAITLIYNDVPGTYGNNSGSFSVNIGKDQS
Nature of the test: Inhibition of FITC-labelled Pseudomonas aeruginosa LecA incubated for 1 hr by fluorescence based analysis.

Test [4] has as its target T1, PA-I galactophilic lectin. Description: Inhibition of FITC-labelled Pseudomonas aeruginosa LecA.

`O=C(O)C[C@H]1[C@@H](Oc2ccccc2[N+](=O)[O-])O[C@H](CO)[C@H](O)[C@@H]1O`: in test [1], the Kd (commonly the equilibrium constant for the complex coming apart) stood at 10600 nM.

In test [2], `O=C(O)C[C@H]1[C@@H](Oc2ccccc2-c2cccc(C(=O)O)c2)O[C@H](CO)[C@H](O)[C@@H]1O` had a Kd of 640 nM.

On to `OC[C@H]1O[C@@H](OCc2cn([C@H]3[C@H](O)[C@@H](O)[C@H](c4cn([C@H]5[C@H](O)[C@@H](O)[C@H](n6cc([C@@H]7O[C@H](CO)[C@@H](n8cc(CO[C@@H]9O[C@H](CO)[C@H](O)[C@H](O)[C@H]9O)nn8)[C@H](O)[C@H]7O)nn6)O[C@@H]5CO)nn4)O[C@@H]3CO)nn2)[C@H](O)[C@@H](O)[C@H]1O`, for which half-maximal inhibition in test [3] (IC50) required 28 nM.

Consider `OC[C@H]1O[C@@H](OCCCc2cn(CCn3cc([C@@H]4O[C@H](CO)[C@@H](n5cc([C@@H]6O[C@H](CO)[C@@H](n7cc(CCCO[C@@H]8O[C@H](CO)[C@H](O)[C@H](O)[C@H]8O)nn7)[C@H](O)[C@H]6O)nn5)[C@H](O)[C@H]4O)nn3)nn2)[C@H](O)[C@@H](O)[C@H]1O`, for which the IC50 (usually the point on the concentration scale where inhibition reaches its midpoint) in test [4] is 220 nM.
